Test results from ChEMBL document CHEMBL1201862, “PubChem BioAssay data set” (2004).
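Briefly, cells in 96-well plates were exposed to five compound concentrations for 48 h, and endpoints were estimated by linear interpolation. GI50 marks 50% less growth.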 Active and inactive are the calls of the source. No stated cut-off is given here; in the data, active = GI50 up to about 1.1 µM and inactive = higher.

Columns and labels:
Test in all cases: growth of human tumour cells (NCI), 48 h
OVCAR-3 = system: OVCAR-3
KM12 = system: KM12
HT-29 = system: HT-29
TK-10 = system: TK-10
LOX IMVI = system: LOX IMVI
RXF 393 = system: RXF 393
SN12C = system: SN12C
UACC-62 = system: UACC-62
COLO 205 = system: COLO 205
SNB-75 = system: SNB-75
SK-MEL-5 = system: SK-MEL-5
CCRF-CEM = system: CCRF-CEM
U-251 = system: U-251
EKVX = system: EKVX
A549 = system: A549
IGROV-1 = system: IGROV-1
A498 = system: A498
NCI/ADR-RES = system: NCI/ADR-RES

Structure (SMILES)	GI50 (OVCAR-3)	GI50 (KM12)	GI50 (HT-29)	GI50 (TK-10)	GI50 (LOX IMVI)	GI50 (RXF 393)	GI50 (SN12C)	GI50 (UACC-62)	GI50 (COLO 205)	GI50 (SNB-75)	GI50 (SK-MEL-5)	GI50 (CCRF-CEM)	GI50 (U-251)	GI50 (EKVX)	GI50 (A549)	GI50 (IGROV-1)	GI50 (A498)	GI50 (NCI/ADR-RES)
Cc1nc2nn(C)cc2c(=O)n1/N=C/c1ccccc1	> 100 µM (inactive)	> 100 µM (inactive)	> 100 µM (inactive)	> 100 µM (inactive)	> 100 µM (inactive)	> 100 µM (inactive)	> 100 µM (inactive)	> 100 µM (inactive)	> 100 µM (inactive)	> 100 µM (inactive)	> 100 µM (inactive)	> 100 µM (inactive)	> 100 µM (inactive)	> 100 µM (inactive)	> 100 µM (inactive)	> 100 µM (inactive)	> 100 µM (inactive)	
C=C1CC2CC[C@@]34C[C@@H]5O[C@@H]6C(O[C@H]7CC[C@H](CC(=O)OC8[C@@H](C)C9OC%10C[C@]%11(C[C@@H]%12O[C@@]%13(C[C@@H](C)[C@@H]%12O%11)C[C@H](C)[C@@H]%11OC%12CC(C(O)CO)OC%12C[C@@H]%11O%13)OC%10CC9O[C@H]8C[C@H]8O[C@@H](CC[C@@H]1O2)C[C@@H](C)C8=C)O[C@@H]7[C@@H]6O3)C5O4 (some centres not stated)	0.000279 µM (active)	0.000494 µM (active)	0.000357 µM (active)	0.00863 µM (active)	0.000469 µM (active)	0.000685 µM (active)	0.00313 µM (active)	0.000494 µM (active)	0.000667 µM (active)	0.000434 µM (active)	0.000308 µM (active)	0.000977 µM (active)	0.00103 µM (active)	0.00405 µM (active)	0.00168 µM (active)	0.00248 µM (active)	0.00197 µM (active)	0.00471 µM (active)
O=C1c2ccccc2C(=O)c2c(O)ccc(O)c21 [QUINIZARIN]	29.2 µM (inactive)	60.5 µM (inactive)	45.3 µM (inactive)	> 100 µM (inactive)	> 100 µM (inactive)	> 100 µM (inactive)	> 100 µM (inactive)	> 100 µM (inactive)	> 100 µM (inactive)	> 100 µM (inactive)	63.1 µM (inactive)	> 100 µM (inactive)	> 100 µM (inactive)	58.7 µM (inactive)	81.3 µM (inactive)	> 100 µM (inactive)	> 100 µM (inactive)	
C=CC1=CSNN1	> 100 µM (inactive)	> 100 µM (inactive)	> 100 µM (inactive)	> 100 µM (inactive)	> 100 µM (inactive)	> 100 µM (inactive)	> 100 µM (inactive)	> 100 µM (inactive)	> 100 µM (inactive)	> 100 µM (inactive)	> 100 µM (inactive)	> 100 µM (inactive)	> 100 µM (inactive)	> 100 µM (inactive)	> 100 µM (inactive)	> 100 µM (inactive)	> 100 µM (inactive)	
C[C@]12Cc3conc3C(O)=C1CC[C@@H]1C2CC[C@@]2(C)C1CC[C@]2(C)O (some centres not stated)	18.4 µM (inactive)	13.7 µM (inactive)	20.6 µM (inactive)	24 µM (inactive)	1.79 µM (inactive)	18.9 µM (inactive)	33 µM (inactive)	10.4 µM (inactive)	20.4 µM (inactive)	10.2 µM (inactive)	13.6 µM (inactive)	8.97 µM (inactive)	19.7 µM (inactive)	21.5 µM (inactive)	28.1 µM (inactive)	19 µM (inactive)	16.1 µM (inactive)	
CN(C)c1cccc(-c2cc(O)c3cc4c(cc3n2)OCO4)c1	0.0807 µM (active)	0.0456 µM (active)	0.202 µM (active)	1.83 µM (inactive)	0.192 µM (active)	0.241 µM (active)	0.632 µM (active)	0.136 µM (active)	0.2 µM (active)	0.054 µM (active)	0.0776 µM (active)	0.204 µM (active)	0.247 µM (active)	25.6 µM (inactive)	0.343 µM (active)	0.625 µM (active)	0.137 µM (active)	
O=C(N/C(=C/c1cccc([N+](=O)[O-])c1)c1nc2cc(Cl)ccc2[nH]1)c1ccccc1	19.6 µM (inactive)	5.41 µM (inactive)	8.95 µM (inactive)	3.67 µM (inactive)	4.53 µM (inactive)	12.4 µM (inactive)	14.3 µM (inactive)	5.4 µM (inactive)	41.9 µM (inactive)	19.2 µM (inactive)	2.82 µM (inactive)	1.07 µM (active)	9.73 µM (inactive)	3.14 µM (inactive)	14.2 µM (inactive)	4.53 µM (inactive)	13 µM (inactive)	
O=C1C[C@@H]2[C@@H](CCC23CCCC3)N1	> 100 µM (inactive)	> 100 µM (inactive)	> 100 µM (inactive)	> 100 µM (inactive)	> 100 µM (inactive)	> 100 µM (inactive)	> 100 µM (inactive)	> 100 µM (inactive)	> 100 µM (inactive)	> 100 µM (inactive)	> 100 µM (inactive)	> 100 µM (inactive)	> 100 µM (inactive)	> 100 µM (inactive)	> 100 µM (inactive)	> 100 µM (inactive)	> 100 µM (inactive)	
C[C@]12CCC3[C@@H](CC[C@@H]4c5nonc5CC[C@]34C)C1CCC2=O (some centres not stated)	17.1 µM (inactive)	20.7 µM (inactive)	16.5 µM (inactive)	29 µM (inactive)	19.6 µM (inactive)	26.2 µM (inactive)	21.5 µM (inactive)	17.3 µM (inactive)	16.9 µM (inactive)	35.4 µM (inactive)	16.9 µM (inactive)	21.8 µM (inactive)	16 µM (inactive)	19.9 µM (inactive)	27.8 µM (inactive)	40.6 µM (inactive)	21.4 µM (inactive)	
COC(=O)CCC(=O)CC(=O)C(=O)Nc1ccc(F)cc1	> 100 µM (inactive)	> 100 µM (inactive)	> 100 µM (inactive)	> 100 µM (inactive)	> 100 µM (inactive)	54 µM (inactive)	> 100 µM (inactive)	> 100 µM (inactive)	> 100 µM (inactive)	> 100 µM (inactive)	> 100 µM (inactive)	> 100 µM (inactive)	> 100 µM (inactive)	> 100 µM (inactive)	> 100 µM (inactive)	> 100 µM (inactive)	> 100 µM (inactive)	
CC(C)Oc1ccc(CNC2=NCCO2)c2ccccc12		18.1 µM (inactive)	4.01 µM (inactive)	16.3 µM (inactive)		13.8 µM (inactive)	17.3 µM (inactive)	15.3 µM (inactive)	16.4 µM (inactive)	18.2 µM (inactive)	12.9 µM (inactive)	13.3 µM (inactive)	13.6 µM (inactive)	15.1 µM (inactive)	15.4 µM (inactive)	12.6 µM (inactive)	10.2 µM (inactive)	12.3 µM (inactive)
O=C(O)c1cc2c3ccccc3nc-2c[nH]1	> 100 µM (inactive)	> 100 µM (inactive)	> 100 µM (inactive)	> 100 µM (inactive)	> 100 µM (inactive)	> 100 µM (inactive)	> 100 µM (inactive)	> 100 µM (inactive)	> 100 µM (inactive)	> 100 µM (inactive)	> 100 µM (inactive)	> 100 µM (inactive)	> 100 µM (inactive)	> 100 µM (inactive)	> 100 µM (inactive)	> 100 µM (inactive)	10 µM (inactive)	
O=C(O)CN(c1ccc(F)cc1)S(=O)(=O)c1ccccc1	> 100 µM (inactive)	> 100 µM (inactive)	> 100 µM (inactive)	> 100 µM (inactive)	> 100 µM (inactive)	> 100 µM (inactive)	> 100 µM (inactive)	> 100 µM (inactive)	> 100 µM (inactive)	> 100 µM (inactive)	> 100 µM (inactive)	> 100 µM (inactive)	> 100 µM (inactive)	> 100 µM (inactive)	> 100 µM (inactive)	> 100 µM (inactive)	> 100 µM (inactive)	
CCOc1ccc(Nc2nc(C)c(C(=O)/C=C/c3ccc(Cl)cc3Cl)s2)cc1	20.2 µM (inactive)	18.3 µM (inactive)	19.7 µM (inactive)	22.6 µM (inactive)	16.8 µM (inactive)	17.7 µM (inactive)	19.3 µM (inactive)	24 µM (inactive)	17.8 µM (inactive)	18.5 µM (inactive)	20 µM (inactive)	29.8 µM (inactive)	19.8 µM (inactive)	31.1 µM (inactive)	23.2 µM (inactive)	35.5 µM (inactive)	22.8 µM (inactive)	
Cc1cc2c(cc1C)[n+]([O-])c(C(=O)CC(=O)C(=O)Nc1ccccc1C)c(C)[n+]2[O-]	> 100 µM (inactive)	> 100 µM (inactive)	> 100 µM (inactive)	> 100 µM (inactive)	> 100 µM (inactive)	> 100 µM (inactive)	> 100 µM (inactive)	> 100 µM (inactive)	46.5 µM (inactive)	> 100 µM (inactive)	> 100 µM (inactive)	40.7 µM (inactive)	> 100 µM (inactive)	33.8 µM (inactive)	56.2 µM (inactive)	> 100 µM (inactive)	> 100 µM (inactive)	
COC(=O)C1=Cc2cn(S(=O)(=O)c3ccc(C)cc3)c3cccc(c23)C(C=C(C)C)N1C(C)=O (configuration not stated)	9.14 µM (inactive)	> 100 µM (inactive)	27.9 µM (inactive)	38.9 µM (inactive)	71.1 µM (inactive)	13.8 µM (inactive)	14.1 µM (inactive)	47.4 µM (inactive)	4.71 µM (inactive)	98.6 µM (inactive)	10.5 µM (inactive)	7.87 µM (inactive)	45.6 µM (inactive)	> 100 µM (inactive)	13.6 µM (inactive)	48.8 µM (inactive)	68.9 µM (inactive)	
